Our source for the Activity and viability values is ChEMBL document CHEMBL4052804, “Design and synthesis of piperazine acetate podophyllotoxin ester derivatives targeting tubulin depolymerization as new anticancer agents” (Bioorg Med Chem Lett, 2017).

The source made the active and inactive calls. The calls are words filed in the database; no cut-off is given here.

Assay [1] deals with MCF7. As to the kind of experiment: Cell cycle arrest in human MCF7 cells assessed as accumulation at S phase at 0.3 uM after 12 hrs by propidium iodide staining based flow cytometric method (reference value: 27.63 to 32.34%). In kind it is functional.
In assay [2] the test system is MCF7. As to the kind of experiment: Cell cycle arrest in human MCF7 cells assessed as accumulation at G1 phase at 0.6 uM after 4 hrs by propidium iodide staining based flow cytometric method (reference value: 60.19 to 60.87%). In kind it is functional.
Assay [3] has as its system MCF7. As to the kind of experiment: Induction of apoptosis in human MCF7 cells assessed as necrotic cells at 12 uM after 24 hrs by Annexin-V-FITC/propidium iodide staining based flow cytometric method (reference value: 2.35 to 2.49%). In kind it is functional.
Assay [4] deals with MCF7. Description: Induction of apoptosis in human MCF7 cells assessed as early apoptotic cells at 4 uM after 24 hrs by Annexin-V-FITC/propidium iodide staining based flow cytometric method (reference value: 2.36 to 2.86%). In kind it is functional.
The species entered for the next assay is Homo sapiens. Description: Induction of tubulin depolymerization in human MCF7 cells at 0.5 to 1 uM after 12 hrs by DAPI staining based confocal microscopic analysis. The class given is cell-based.
The test system of assay [5] is MCF7. As to the kind of experiment: Induction of apoptosis in human MCF7 cells assessed as necrotic cells at 2 uM after 24 hrs by Annexin-V-FITC/propidium iodide staining based flow cytometric method (reference value: 2.35 to 2.49%). In kind it is functional.
Assay [6] concerns MCF7. Description: Induction of apoptosis in human MCF7 cells assessed as viable cells at 8 uM after 24 hrs by Annexin-V-FITC/propidium iodide staining based flow cytometric method (reference value: 91.6 to 92.7%). The class given is functional. The conditions noted are these: MCF7, 24 h, read-out: Activity.
Assay [7] deals with MCF7. Description: Down regulation of cyclin A expression in human MCF7 cells at 0.5 to 2 uM after 24 hrs by Western blot analysis. The class given is functional, cell-based.
The subject of assay [8] is MCF7. As to the kind of experiment: Cell cycle arrest in human MCF7 cells assessed as accumulation at G1 phase at 0.6 uM after 16 hrs by propidium iodide staining based flow cytometric method (reference value: 60.19 to 60.87%). The class given is functional.
For assay [9], the system named is MCF7. As to the kind of experiment: Induction of apoptosis in human MCF7 cells assessed as early apoptotic cells at 12 uM after 24 hrs by Annexin-V-FITC/propidium iodide staining based flow cytometric method (reference value: 2.36 to 2.86%). In kind it is functional.

With `COc1cc([C@@H]2c3cc4c(cc3[C@H](OC(=O)CN3CCN(c5ccc(Cl)c(Cl)c5)CC3)[C@H]3COC(=O)[C@H]23)OCO4)cc(OC)c1OC`, the Activity with MCF7 [1] stood at 24.21%; in the assay with MCF7 [2], 46.58%; in the assay on MCF7 [3], 6.91%; in the assay with MCF7 [4], 11.4%; in the assay with MCF7 [5] it was 2.61%; in the assay on MCF7 [8], 8.51%. Further, the Activity in the assay with MCF7 [9] turned out to be 17.5%. Further, the outcome in the assay filed under Homo sapiens and with MCF7 [7] was Active. The viability at 8 µM with MCF7 [6] is 67.9%.
